22 compounds from US20100204203A1, “Chemical Compounds 637: Pyridopyrimidinediones as PDE4 Inhibitors” (priority 2007, published 2010) can be followed below.

Each structure is given as a SMILES string.

recombinant Human Phosphodiesterase B2 (PDE4B2), sequence (Q07343 1-564 isoform Q07343-2): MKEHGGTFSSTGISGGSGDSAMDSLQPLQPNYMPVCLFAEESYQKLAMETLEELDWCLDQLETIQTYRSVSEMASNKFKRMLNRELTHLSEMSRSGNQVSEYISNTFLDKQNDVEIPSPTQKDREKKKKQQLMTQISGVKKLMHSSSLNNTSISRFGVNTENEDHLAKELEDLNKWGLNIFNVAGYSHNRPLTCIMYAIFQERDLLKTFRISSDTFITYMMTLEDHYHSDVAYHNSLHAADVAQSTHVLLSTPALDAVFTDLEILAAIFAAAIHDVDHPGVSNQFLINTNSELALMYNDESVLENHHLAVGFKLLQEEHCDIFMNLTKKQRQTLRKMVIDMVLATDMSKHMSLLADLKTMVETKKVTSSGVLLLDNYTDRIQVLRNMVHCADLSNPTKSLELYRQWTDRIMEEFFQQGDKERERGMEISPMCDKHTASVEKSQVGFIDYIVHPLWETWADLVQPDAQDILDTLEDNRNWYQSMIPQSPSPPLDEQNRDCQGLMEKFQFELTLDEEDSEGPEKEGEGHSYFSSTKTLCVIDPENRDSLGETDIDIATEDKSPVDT

In this assay the target is recombinant Human Phosphodiesterase B2 (PDE4B2) (Homo sapiens, UniProt Q07343). The assay is described as follows: Human Phosphodiesterase B2 Radiometric Assay (yttrium silicate SPA beads, [3H]cyclic AMP). In kind it is biochemical. To be noted: recombinant human PDE4B2, radiometric SPA assay, 8 nM [3H]cyclic AMP; read-out: PDE4B2 pIC50 (converted). The gist of the method:
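Compounds were preincubated 30 min at 30 °C with 0.1 mg/mL PDE4B2 in 50 mM HEPES pH 7.5, 8.3 mM MgCl2, 1.7 mM EGTA, 0.01% Brij 35. Then 8 nM [3H]cAMP was added for 20 min, stopped with yttrium silicate SPA beads plus 18 mM ZnSO4 capturing product 5′AMP; pIC50 by curve fitting.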
Turning to `O=C(N[C@H]1CC[C@@H](n2c(=O)c3cc(F)cnc3n(-c3cccc(-c4ccc(CNC5CCNCC5)cc4)c3)c2=O)CC1)c1cn2cc(F)ccc2n1` [Example 268, 6-Fluoro-N-{cis-4-[6-fluoro-2,4-dioxo-1-{4′-[(piperidin-4-ylamino)methyl]biphenyl-3-yl}-1,4-dihydropyrido[2,3-d]pyrimidin-3(2H)-yl]cyclohexyl}imidazo[1,2-a]pyridine-2-carboxamide], the IC50 is 0.0126 nM.

For the compound `CN1CCCC1c1ccc2nc(C(=O)N[C@H]3CC[C@@H](n4c(=O)c5cc(F)cnc5n(-c5cccc(-c6ccccc6)c5)c4=O)CC3)cn2c1` (stereo partly drawn) [Example 2, N-[cis-4-(1-biphenyl-3-yl-6-fluoro-2,4-dioxo-1,4-dihydropyrido[2,3-d]pyrimidin-3(2H)-yl)cyclohexyl]-6-(1-methylpyrrolidin-2-yl)imidazo[1,2-a]pyridine-2-carboxamide], the IC50 was 0.158 nM.

As for `O=C(N[C@H]1CC[C@@H](n2c(=O)c3cc(F)cnc3n(-c3cccc(-c4ccccc4C(=O)O)c3)c2=O)CC1)c1cn2cc(F)ccc2n1` [Example 60, 3′-[6-fluoro-3-(cis-4-{[(6-fluoroimidazo[1,2-a]pyridin-2-yl)carbonyl]amino}cyclohexyl)-2,4-dioxo-3,4-dihydropyrido[2,3-d]pyrimidin-1(2H)-yl]biphenyl-2-carboxylic acid], the IC50 was 6.31 nM.

As for `O=C(N[C@H]1CC[C@@H](n2c(=O)c3cc(F)cnc3n(-c3cccc(-c4ccc(CCCNCCCO)cc4)c3)c2=O)CC1)c1cn2cc(F)ccc2n1` [Example 96, 6-fluoro-N-{cis-4-[6-fluoro-1-(4′-{3-[(3-hydroxypropyl)amino]propyl}biphenyl-3-yl)-2,4-dioxo-1,4-dihydropyrido[2,3-d]pyrimidin-3(2H)-yl]cyclohexyl}imidazo[1,2-a]pyridine-2-carboxamide], the IC50 was 0.0126 nM.

With `CNCCNCc1ccc(-c2cc(C)cc(-n3c(=O)n([C@H]4CC[C@@H](NC(=O)c5cn6cc(F)ccc6n5)CC4)c(=O)c4cc(F)cnc43)c2)cc1` [Example 231], the IC50 was 0.126 nM.

On to `Cc1cccc2nc(CN[C@H]3CC[C@@H](n4c(=O)c5cc(F)cnc5n(-c5cccc(-c6ccc(O)cc6CN6CCOCC6)c5)c4=O)CC3)cn12` [Example 335, 6-fluoro-1-[4′-hydroxy-2′-(morpholin-4-ylmethyl)biphenyl-3-yl]-3-(cis-4-{[(5-methylimidazo[1,2-c]pyridin-2-yl)methyl]amino}cyclohexyl)pyrido[2,3-d]pyrimidine-2,4(1H,3H)-dione], for which the IC50 was 0.00794 nM.

`CSc1ncc(-c2cccc(-n3c(=O)n([C@H]4CC[C@@H](NC(=O)c5cn6cc(F)ccc6n5)CC4)c(=O)c4cc(F)cnc43)c2)cn1` [Example 30, 6-fluoro-N-{cis-4-[6-fluoro-1-{3-[2-(methylthio)pyrimidin-5-yl]phenyl}-2,4-dioxo-1,4-dihydropyrido[2,3-d]pyrimidin-3(2H)-yl]cyclohexyl}imidazo[1,2-a]pyridine-2-carboxamide.]: the IC50 was 0.0158 nM.

For `O=C(N[C@H]1CC[C@@H](n2c(=O)c3cc(F)cnc3n(-c3cccc(-c4ccc(CN5CCCOCC5)cc4)c3)c2=O)CC1)C1CC1` [Example 306, N-{cis-4-[6-fluoro-1-[4′-(1,4-oxazepan-4-ylmethyl)biphenyl-3-yl]-2,4-dioxo-1,4-dihydropyrido[2,3-d]pyrimidin-3(2H)-yl]cyclohexyl} cyclopropanecarboxamide], the IC50 was 0.251 nM.

Regarding `O=c1c2cc(F)cnc2n(-c2cccc(-c3ccc(O)cc3CN3CCOCC3)c2)c(=O)n1[C@H]1CC[C@@H](NCc2cc3ccccc3o2)CC1` [Example 279, 3-{cis-4-[(1-benzofuran-2-ylmethyl)amino]cyclohexyl}-6-fluoro-1-[4′-hydroxy-2′-(morpholin-4-ylmethyl)biphenyl-3-yl]pyrido[2,3-d]pyrimidine-2,4(1H,3H)-dione], the IC50 is 0.0398 nM.

Take `O=c1c2cc(F)cnc2n(-c2cccc(-c3cccc(O)c3CN3CCOCC3)c2)c(=O)n1[C@H]1CC[C@@H](NCc2cn3cc(F)ccc3n2)CC1` [Example 346, 6-Fluoro-3-(cis-4-{[(6-fluoroimidazo[1,2-a]pyridin-2-yl)methyl]amino}cyclohexyl)-1-[3′-hydroxy-2′-(morpholin-4-ylmethyl)biphenyl-3-yl]pyrido[2,3-d]pyrimidine-2,4(1H,3H)-dione]: the IC50 is 0.126 nM.

For `CN1CCN(CCc2ccc(-c3cccc(-n4c(=O)n([C@H]5CC[C@@H](NC(=O)c6cn7cc(F)ccc7n6)CC5)c(=O)c5cc(F)cnc54)c3)cc2)CC1` [Example 100, 6-fluoro-N-{cis-4-[6-fluoro-1-{4′-[2-(4-methylpiperazin-1-yl)ethyl]biphenyl-3-yl}-2,4-dioxo-1,4-dihydropyrido[2,3-d]pyrimidin-3(2H)-yl]cyclohexyl}imidazo[1,2-a]pyridine-2-carboxamide], the IC50 was 0.00794 nM.

For the compound `C[C@@H](O)CN(C)Cc1cc(O)ccc1-c1cccc(-n2c(=O)n([C@H]3CC[C@@H](NCc4cn5cc(F)ccc5n4)CC3)c(=O)c3cc(F)cnc32)c1` [Example 320, 6-fluoro-3-(cis-4-{[(6-fluoroimidazo[1,2-c]pyridin-2-yl)methyl]amino}cyclohexyl)-1-(4′-hydroxy-2′-{[[(2R)-2-hydroxypropyl](methyl)amino]methyl}biphenyl-3-yl)pyrido[2,3-d]pyrimidine-2,4(1H,3H)-dione], the IC50 was 0.2 nM.

In the case of `N[C@H]1CC[C@@H](n2c(=O)c3cc(F)cnc3n(-c3cccc(C(=O)O)c3)c2=O)CC1` [Example 91, 3-[3-(cis-4-aminocyclohexyl)-6-fluoro-2,4-dioxo-3,4-dihydropyrido[2,3-d]pyrimidin-1(2H)-yl]benzoic acid], the IC50 is 7.94 nM.

Regarding `NCCNC(=O)c1cccc(-n2c(=O)n([C@H]3CC[C@@H](NC(=O)c4cn5ccccc5n4)CC3)c(=O)c3cc(F)cnc32)c1` [Example 5, N-{cis-4-[1-(3-{[(2-aminoethyl)amino]carbonyl}phenyl)-6-fluoro-2,4-dioxo-1,4-dihydropyrido[2,3-d]pyrimidin-3(2H)-yl]cyclohexyl}imidazo[1,2-a]pyridine-2-carboxamide], the IC50 was 39.8 nM.

Consider `O=c1c2cc(F)cnc2n(-c2cccc(-c3ccc(O)cc3CN3CCOCC3)c2)c(=O)n1[C@H]1CC[C@@H](NCc2cc(F)ccc2F)CC1` [Example 282, 3-{cis-4-[(2,5-difluorobenzyl)amino]cyclohexyl}-6-fluoro-1-[4′-hydroxy-2′-(morpholin-4-ylmethyl)biphenyl-3-yl]pyrido[2,3-d]pyrimidine-2,4(1H,3H)-dione], for which the IC50 is 0.794 nM.

Take `Cc1cc(O)ccc1-c1cccc(-n2c(=O)n([C@H]3CC[C@@H](NC(=O)c4cn5cc(F)ccc5n4)CC3)c(=O)c3cc(F)cnc32)c1` [Example 23, 6-fluoro-N-{cis-4-[6-fluoro-1-(4′-hydroxy-2′-methylbiphenyl-3-yl)-2,4-dioxo-1,4-dihydropyrido[2,3-d]pyrimidin-3(2H)-yl]cyclohexyl}imidazo[1,2-a]pyridine-2-carboxamide.]: the IC50 was 0.0398 nM.

On to `COCCN(C)Cc1ccc(-c2cccc(-n3c(=O)n([C@H]4CC[C@@H](NC(=O)c5cc(C)n(C)n5)CC4)c(=O)c4cc(F)cnc43)c2)cc1` [Example 217, N-{cis-4-[6-fluoro-1-(4′-{[(2-methoxyethyl)(methyl)amino]methyl}biphenyl-3-yl)-2,4-dioxo-1,4-dihydropyrido[2,3-d]pyrimidin-3(2H)-yl]cyclohexyl}-1,5-dimethyl-1H-pyrazole-3-carboxamide], for which the IC50 was 0.0316 nM.

As for `O=C(N[C@H]1CC[C@@H](n2c(=O)c3cc(F)cnc3n(-c3cccc(C#Cc4cccnc4)c3)c2=O)CC1)c1cn2ccccc2n1` [Example 6, N-{cis-4-[6-fluoro-2,4-dioxo-1-[3-(pyridin-3-ylethynyl)phenyl]-1,4-dihydropyrido[2,3-d]pyrimidin-3(2H)-yl]cyclohexyl}imidazo[1,2-a]pyridine-2-carboxamide], the IC50 is 0.00794 nM.

In the case of `CN1CCCN(Cc2ccc(-c3cccc(-n4c(=O)n([C@H]5CC[C@@H](NC(=O)c6cnc7ccccc7n6)CC5)c(=O)c5cc(F)cnc54)c3)cc2)CC1` [Example 358, N-{cis-4-[6-fluoro-1-{4′-[(4-methyl-1,4-diazepan-1-yl)methyl]biphenyl-3-yl}-2,4-dioxo-1,4-dihydropyrido[2,3-d]pyrimidin-3(2H)-yl]cyclohexyl} quinoxaline-2-carboxamide], the IC50 was 0.0126 nM.

On to `CN(Cc1cn2cc(F)ccc2n1)[C@H]1CC[C@@H](n2c(=O)c3cc(F)cnc3n(-c3cccc(-c4ccc(O)cc4CN4CCOCC4)c3)c2=O)CC1` [Example 286, 6-fluoro-3-{cis-4-[[(6-fluoroimidazo[1,2-a]pyridin-2-yl)methyl](methyl)amino]cyclohexyl}-1-[4′-hydroxy-2′-(morpholin-4-ylmethyl)biphenyl-3-yl]pyrido[2,3-d]pyrimidine-2,4(1H,3H)-dione], for which the IC50 is 2 nM.

As to `CNCCOc1ccc(-c2cccc(-n3c(=O)n([C@H]4CC[C@@H](NC(=O)c5cn6cc(F)ccc6n5)CC4)c(=O)c4cc(F)cnc43)c2)cc1` [Example 77, 6-fluoro-N-{cis-4-[6-fluoro-1-{4′-[2-(methylamino)ethoxy]biphenyl-3-yl}-2,4-dioxo-1,4-dihydropyrido[2,3-d]pyrimidin-3(2H)-yl]cyclohexyl}imidazo[1,2-c]pyridine-2-carboxamide], the IC50 is 0.0251 nM.

`Cc1nc(C(=O)N[C@H]2CC[C@@H](n3c(=O)c4cc(F)cnc4n(-c4cccc(-c5ccc(CN6C[C@@H](C)N[C@@H](C)C6)cc5)c4)c3=O)CC2)cs1` [Example 301, N-{cis-4-[1-(4′-{[(3R,5S)-3,5-dimethylpiperazin-1-yl]methyl}biphenyl-3-yl)-6-fluoro-2,4-dioxo-1,4-dihydropyrido[2,3-d]pyrimidin-3(2H)-yl]cyclohexyl}-2-methyl-1,3-thiazole-4-carboxamide]: the IC50 was 0.0398 nM.
